# Data reported in patent US20230167437A1, “COMPOSITIONS FOR TREATING CANCER WITH KRAS MUTATIONS AND USES THEREOF” (Aadigen, LLC, priority 2020, published 2023).
# Legend:
# Format in all cases: cell-based, human
# [1] = tested on: Mia-PACA, H23 and H358 cells; experiment: Cell proliferation over 5 days (CellTiter Glow)
# Method: (§1) Transfection protocol. The following protocols are reported for 24/48/96 well plate format transfection. Cells should be trypsinized and seeded a day prior transfection Cells were cultured in Dulbecco's Modified Eagle's Medium (DMEM), supplemented with 2 mM glutamine, 1% antibiotics (streptomycin 10,000 μg/mL, penicillin, 10,000 IU/mL) and 10% (w/v) foetal calf serum (FCS), at 37° C. in a humidified atmosphere containing 5% CO2. 96 well plates seeded with 50,000 cells, the day prior transfection, grown to 60-80% confluence and set up to be at around 70% confluence at the day of transfection. Before transfection, cells are washed twice with DMEM (without FBS and pen/strep) (100 μl/well). Cells were then overlaid with 25 μl of complex solution, mixed gently and incubated for 10 min at 37° C.+5% CO2. 50 μl of fresh DMEM (without FBS and Antibiotics) was added and cells were incubated for 2 h at 37° C.+5% CO2 (time of exposure can be adjusted based on sensitivity of the cells). 250 μL of DMEM (containing 10% FCS and 1% antibiotics) were then added without removing the overlay of ADGN peptide/mRNA complexes. Cells were returned to the incubator (37° C., 5% CO2) and analyzed 48 hours to 72 hours post transfection.
# (§2) Eight different gRNAs targeting KRAS 34G>T mutant G12C (gRNA34T1, gRNA34T2, gRNA34T3, gRNA34T4, gRNA34T5, gRNA34T6, gRNA34T7 and gRNA34T8) were evaluated on MIA-PACA, H23, H358, H29 and PANC1 cells. Cas9 mRNA (0.1 μg) and gRNA (0.2 μg) were associated with ADGN peptide at molar ratio 20/1 (peptide/nucleic acid). MIA-PACA, H23, H358, PANC1 and HT29 cells were cultured in 48 well plate format and treated with free mRNACas9-gRNA, or ADGN/mRNACas9:gRNA complex. Indel frequencies at the endogenous target sequences was evaluated 72 hours after transfection by either T7E1 method or deep sequencing. Cell proliferation was analyzed over a period of 5 days using CellTiter Glow kits on GlowMax (Promega).
# [2] = tested on: G12V, G12D, G12C KRAS mutant cells and WT KRAS cells; experiment: Specificity of lead sgRNAs on a large panel of cancer cells harboring different KRAS mutations (indel, proliferation); details: Cas9 mRNA 0.2 μg, gRNA 0.4 μg
# Method: (§3) In order to confirm the specificity of sgRNAs targeting G12V, G12C or G12D KRAS mutation, gRNA35T3 targeting G12V, gRNA34T6 targeting G12C, and gRNA35A5 targeting G12D were evaluated on a large panel of cancer cells harboring different KRAS mutations including SW403, SW480, PANC1, PK-45H, PK-1, MIA-PACA, H23, H358, HT-29, HS-68 and LS513. Cas9 mRNA (0.2 μg) and gRNA (0.4 μg) were associated with ADGN peptide at molar ratio 20/1 (peptide/nucleic acid). Cells were cultured in 48 well plate format and treated with free mRNACas9-gRNA, or ADGN/mRNACas9:gRNA complex. Indel frequencies at the endogenous target sequences was evaluated 72 hours after transfection by either T7E1 method and cell proliferation was analyzed over a period of 5 days using CellTiter Glow kits on GlowMax (Promega).
# KRAS 34G>T mutant G12C = experiment: Indel frequencies at the endogenous target sequences (T7E1 / deep sequencing) after ADGN/Cas9 mRNA/gRNA transfection; details: for indel frequencies: deep sequencing, 72 hours after transfection, Cas9 mRNA 0.1 μg, gRNA 0.2 μg
# Method: Complex formation with mRNA:gRNA: ADGN peptide/mRNA/gRNA particles were prepared at a 20:1:1 molar ratio. ADGN/Cas9mRNA/sgRNA complexes were prepared at a 20/1/1 molar ratio with 0.5 μg mRNA: 1.5 μg sgRNA and 5% Glucose or DMEM (example for 96 well plates). […] Premixed Cas9 mRNA/gRNA were prepared in sterile water at room temperature in a glass vial (1-4 ml). ADGN-peptide solution was added dropwise (1 drop/sec) under magnetic agitation at 400 rpm to obtain a 1:2 ratio, and incubated for 30 min at room temperature or 37° C. Just before transfection, 150 μl Glucose or DMEM was added and the solution was mixed under magnetic agitation at 400 rpm for 1 minute. Then the solution was incubated for 5 min at 37° C. Then the complexes was ready for cell transfection or IV administration. Prior to IV administration, complexes were diluted in sucrose 5% solution.
# as §1, §2, §3
sequence,measurement,setting,value
"GTAGTTGGAGCTTGTGGCGT (guide GTAGTTGGAGCTTGTGGCGT; sgRNA, chemical modifications not given here, further chemistry not given here) [gRNA34T6, sgRNA target KRAS G12C mutation (34G>T); PAM AGG]",fold more efficient than gRNA34T3 (cell proliferation),[1],3 fold
same,fold more efficient than gRNA34T5 (cell proliferation),[1],2 fold
same,inhibition of proliferation or survival (FIG. 3B),"[1]; Mia-PACA, H23, H358 vs KRAS WT HT29 or HS-68 and PANC1 cells","specifically inhibit proliferation or survival of Mia-PACA, H23 and H358 cells"
same,cell proliferation blocked,"[1]; Mia-PACA, H23 and H358 cells, 5 days",75%
same,effect on non-targeted KRAS mutant cells and WT KRAS cells (FIGS. 4A-4B),[2],does not alter G12D and G12V KRAS mutant cells or WT KRAS cells
same,indel frequencies,KRAS 34G>T mutant G12C; H23 cells,78%
same,indel frequencies,KRAS 34G>T mutant G12C; H358 cells,67%
same,indel frequency,KRAS 34G>T mutant G12C; KRAS G12C mutated cancer cells,> 70%
same,indel frequencies,KRAS 34G>T mutant G12C; Mia-PACA cells,71%
same,indel editing and disruption of G12C mutant KRAS (FIG. 3A),"KRAS 34G>T mutant G12C; Mia-PACA, H23, H358 vs HT29 and PANC1 cells",induced indel editing and efficient disruption of G12C mutant KRAS
same,indel frequency,"KRAS 34G>T mutant G12C; Mia-PACA, H23 and H358 cells, T7E1, 72 hours, Cas9 mRNA 0.2 μg, gRNA 0.4 μg",> 70%
